Each structure is given as a SMILES string.

Type in all cases: cell-based
In assay [1] the test system is MM cell lines. Nature of the assay: Two-drug combination matrix in MM cell lines, ZIP synergy. The conditions noted are these: for synergy of translation inhibitor with pomalidomide: MM.1S and H929 cells; for ZIP δ-score for synergy with omacetaxine: BET inhibitor with omacetaxine.
Assay [2] has as its system MM1.S cells. Description: Timecourse of apoptosis and cell death by Annexin V and DAPI flow cytometry. From the text:
FIG. 2A depicts the timecourse of induction of apoptosis and cell death by omacetaxine in MM1.S cells as measured by Annexin V and DAPI staining by flow cytometry.
FIG. 10A depicts the timecourse of induction of apoptosis and cell death by pomalidomide in MM1.S cells as measured by annexin V and DAPI staining by flow cytometry.

The subject of assay [3] is protein translation in MM cell lines and primary MM cells. Nature of the assay: OP-Puro protein translation assay in vitro. The following applies: omacetaxine 50 nM 2.5 h, bortezomib 6 h, 24 h, 48 h. The procedure:
To examine whether myeloma cells depend on inherently high protein synthesis, the O-Propargyl-puromycin (OP-Puro) assay was used to measure the rate of amino-acid incorporation into translating ribosomes by flow cytometry.
Protein synthesis levels were determined in vitro utilizing the puromycin analog O-propargyl-puromycin (OP-Puro) in the protein synthesis assay kit (Cayman Chemical) according to manufacturer instructions. For in vivo protein synthesis, engrafted NSG mice were injected IP with 500 μg puromycin (Gibco), then euthanized after 1.5 h, marrow was flushed, and cells stained with anti-puromycin antibody (12D10, Alexa-488, Millipore Sigma), followed by flow cytometry.

On to `C[C@@H]1C[C@@H]([C@H](O)CC2CC(=O)NC(=O)C2)C(=O)[C@@H](C)C1` [cycloheximide], for which the “synergy of translation inhibitor with pomalidomide” value in assay [1] is “synergistic”.
Same read-out and setting: under `C/C(=C\[C@H](C)C(=O)C[C@H](O)CC1CC(=O)NC(=O)C1)[C@@H]1OC(=O)/C=C/CC/C=C/C=C\[C@@H]1C` [lactimidomycin] stands “synergistic”; under `COc1ccc(C[C@H]2NC[C@H](O)[C@H]2OC(C)=O)cc1` [anisomycin], “synergistic”.
Regarding `Nc1cccc2c1C(=O)N(C1CCC(=O)NC1=O)C2=O` (stereo not shown) [pomalidomide], in assay [2], the “time at which cell death began” value is listed as 24 h and the “time at which induction of apoptosis started” value was found to be 24 h.
`CC(C)C[C@H](NC(=O)[C@H](Cc1ccccc1)NC(=O)c1cnccn1)B(O)O` [bortezomib]: the “ability to inhibit translation in myeloma cell lines” value in assay [3] is given as “did not occur”; in assay [3] (listed as Boitezomib) it was “did not change translation levels”.
Turning to `Cc1sc2c(c1C)C(c1ccc(Cl)cc1)=N[C@@H](CC(=O)OC(C)(C)C)c1nnc(C)n1-2` [JQ1], in assay [1] (MM.1S cell line), the “ZIP δ-score for synergy with omacetaxine” value came to 17.56. Moreover, in assay [1] (JQ1 100 nM with pomalidomide 1.25 μM, U266, 96 h), the “ZIP δ-score for synergy with pomalidomide” value came to 21.18.
On to `CCS(=O)(=O)Nc1ccc(Oc2ccc(F)cc2F)c(-c2cn(C)c(=O)c3[nH]ccc23)c1` [ABBV-075], for which the “ZIP δ-score for synergy with pomalidomide” value in assay [1] (ABBV-075 with pomalidomide, MM.1S cell line) is given as 6.597. Also, the “ZIP δ-score for synergy with omacetaxine” value in assay [1] (MM.1S cell line) was determined as 12.02.
In the case of `Cc1sc2c(c1C)C(c1ccc(Cl)cc1)=N[C@@H](CC(=O)Nc1ccc(O)cc1)c1nnc(C)n1-2` [OTX015], in assay [1] (MM.1S cell line), the “ZIP δ-score for synergy with omacetaxine” value was found to be 7.64. The “ZIP δ-score for synergy with pomalidomide” value in assay [1] (OTX015 with pomalidomide, MM cell lines) amounted to 1.84.

Values taken from patent publication US20230028293A1, “MULTIPLE MYELOMA COMBINATION THERAPIES BASED ON PROTEIN TRANSLATION INHIBITORS AND IMMUNOMODULATORS” (The Regents of the University of Colorado, a body corporate, priority 2019, published 2023).
